This is an account of results in patent US7588756B1, “Treatment of cardiac power failure” (priority 1999, dated 2009).

For assay [1] the following is noted: clinical studies; cited from earlier work.
Assay [2] relates to saponin-semipermeabilized skeletal muscle fibres of the rat. Nature of the assay: Isometric force of saponin-semipermeabilized (skinned) skeletal muscle fibres, indirect measure of Ca2+ release from the SR. The conditions noted are these: for Ca2+ sensitivity of the contractile apparatus / increase of maximum force development compared with the control: slow skeletal musculature (M. soleus); for Ca2+ sensitivity of the contractile apparatus: 5-10 μM; for increase of maximum force development compared with the control: equimolar concentration 5-10 μM. On the procedure:
The aim of this test procedure was therefore to examine what functional significance these sequences—in the form of synthetic peptides—have compared with the whole protein for the regulation of the Ca^2+ release from the SR. The Ca^2+ release was measured indirectly on saponin-semipermeabilized skeletal muscle fibres of the rat over an isometric force gradient. The measurement of the isometric force before and after addition of S100A1 peptide/protein served as a control.

The subject of the next assay is protein kinase C. The conditions noted are these: cited from earlier work.
Assay [3] has as its system microtubuli and intermediate filaments. The settings on record: biochemical reconstitutive assays; cited from earlier work.
The test system of assay [4] is neonatal rat cardiomyocytes. The assay can be described thus: Intracellular Ca2+ transients in cultivated neonatal rat cardiomyocytes after co-cultivation with recombinant S100A1. Type of assay: cell-based. The conditions noted are these: S100A1 1 μM to 10 μM at two-day intervals, 7 days. As to the method: Neonatal rat hearts were removed from 3-day-old rats, ventricles separated from the atria and stored coarse-ground on ice in ADS buffer (6.8 g NaCl, 4.76 g HEPES, 0.12 g NaH2PO4, 1 g glucose, 0.4 g KCl, 0.1 g MgSO4 and 1000 ml H2O). In a bioreactor (Wheaton® container), the cells were then separated from the tissue assembly by means of collagenase digestion (108 U/mg/ml collagenase, Worthington, USA), and the released cells separated over a density gradient (Percoll, Pharmacia®) by centrifugation. The cardiomyocyte fraction was resuspended in cell culture medium (DMEM+10% newborn calf serum) and plated in a density of approx. 100,000 cardiomyocytes per well on 24-well cell culture plates. After 24 hours culture at 37° C. and 5% CO2, recombinant S100A1 was added to the cell culture medium at two-day intervals in concentrations of 1 μM to 10 μM. […] The intracellular Ca^2+ transients were then detected and quantified by means of inverse fluorescence microscopy (Olympus OSP 3®) under both rest conditions and electrical field stimulation (PHYWE®-bioelectrical measurement unit; frequencies of 30-300 bpm). […] The changes in the Ca^2+ concentration per time unit were measured as a quotient from the time until the signal maximum and the signal amplitude (+dc/dt) were reached or as a quotient of the time until the half amplitude and the signal amplitude (−dc/dt) were reached. […]

In the case of `COc1ccc(-c2nc3ccc(C4=NNC(=O)CC4C)cc3[nH]2)cc1` (stereo not shown) [pimobendan], the “improvement of the heart function compared with placebo” value in assay [1] is “no significant improvement of the heart function”.

“combination of the three peptides: Combination of the N-terminal, hinge region and C-terminal synthetic S100A1 peptides (peptide 1 GSELETAMETLINVF; peptide 2 LSGFLDAQKDVDA; peptide 3 YVVLVAALTVA)”: in assay [2], the “Ca2+ sensitivity of the contractile apparatus” value is on record as “unchanged” and the “increase of maximum force development compared with the control” value is reported as 49%±6%.

As to “combination of “C-terminal” peptide and the “hinge region”: Combination of the C-terminal and hinge region synthetic S100A1 peptides (peptide 1 LSGFLDAQKDVDA; peptide 2 YVVLVAALTVA)”, the “increase of isometric force development” value in assay [2] (before versus after addition of peptide) was 15%±4%.

With “recombinant S100A1: Human recombinant Ca2+-binding protein S100A1 (SEQ ID NO: 2) prepared in genetically modified E. coli”, the “effect on protein kinase C” value with protein kinase C was “inhibition”. In assay [3], the “polymerization of microtubuli and of intermediate filaments” value is listed as “inhibition”. Besides, in assay [2], the “Ca2+ sensitivity of the contractile apparatus” value is recorded as “unchanged” and the “increase of maximum force development compared with the control” value is 52%±7%. The “rise in the Ca2+ concentration per time unit in the systole (+dc/dt), increase in comparison with the control cell population” value in assay [4] (p<0.0002) was found to be 3 times. Besides, the “drop in the Ca2+ concentration per time unit in the diastole (-dc/dt), acceleration in comparison with the control cell population” value in assay [4] (p<0.0003) was 2.2 times.
